Test results as given in US20140120083A1, “TREATMENT OF CANCERS USING PI3 KINASE ISOFORM MODULATORS” (INFINITY PHARMACEUTICALS, INC., priority 2012, published 2014).
Where “and” joins values, the source holds several entries; their conditions need not be identical. Equal values may be shown once. Entries after “also recorded” stand apart in the source; their conditions may differ. Marks after values point to notes of the source that are not given here.

Key:
[1] = Plasma protein binding, rat; format: in vitro ADME; conditions: 100 μM (41700 ng/mL)
Source text: (§1) […]. […] […].

[2] = Plasma protein binding, monkey; format: in vitro ADME; conditions: 100 μM (41700 ng/mL)
Source text: as §1

[3] = Plasma protein binding, human; format: in vitro ADME; conditions: 100 μM (41700 ng/mL)
Source text: as §1

Pharmacokinetics, mouse = format: in vivo, BALB/c mice
Pharmacokinetics, rat = format: in vivo, Sprague-Dawley rats
Pharmacokinetics, dog = format: in vivo, Beagle dogs; conditions: for Foral: AUC0-last; for clearance / Vd / AUC(0-inf) / AUC(0-t) / Cmax / half-life / Tmax: beagle, in vivo; for Vd: read-out: Vss; for AUC(0-t): read-out: AUC0-last (AUC0-24)
[4] = Tissue distribution of radiolabelled compound; format: in vivo; conditions: rat, radiolabelled Compound 292, majority of tissues
Caco-2 cell monolayers = assay: Membrane permeability, Caco-2 cell monolayers; format: in vitro ADME, human
[5] = Phase 1 study in advanced hematologic malignancies, pharmacokinetics; format: in vivo, human; conditions: patients
Method: PK and PD markers were evaluated after the first dose (e.g., 8 mg BID) and at steady state. PD activity (PI3K inhibition) in whole blood was evaluated using a basophil activation assay which measured reduction in CD63 expression on the surface of basophils following ex vivo stimulation.

[6] = In vivo rat micronucleus assay
[7] = Single-dose toxicity study (MTD); conditions: monkey, in vivo, po
respiratory system = assay: Respiratory study (plethysmography); conditions: male rats, single oral dose up to 350 mg/kg
[8] = 13-week repeat-dose safety study, rat
[9] = 13-week repeat-dose safety study, monkey
[10] = Embryo/fetal developmental toxicity, rat
central nervous system = assay: Neurofunctional study (FOB, motor activity); conditions: male rats
[11] = Embryo/fetal developmental toxicity, rabbit
[12] = Clinical study in healthy adult subjects, safety
hematologic malignancies = assay: Phase 1 study in advanced hematologic malignancies, clinical response
[13] = Sprague-Dawley, in vivo, IV, 2 mg/kg
[14] = Sprague-Dawley, in vivo, PO, 10 mg/kg
[15] = po, 5 mg/kg, 5 mg/kg (study with 0.5 mg/kg IV)
[16] = po, 5 mg/kg, 5 mg/kg (study with 1 mg/kg IV)
[17] = multiple doses for 2 weeks (n=36)

## C[C@H](Nc1ncnc2[nH]cnc12)c1cc2cccc(Cl)c2c(=O)n1-c1ccccc1 [Compound 292]
[1]
  protein bound: 85.8%
[2]
  protein bound: 76.8%
[3]
  protein bound: 85.9%
Pharmacokinetics, mouse
  half-life: less than 2 hrs
Pharmacokinetics, mouse; BALB/c, in vivo, IV, 10 mg/kg
  AUC(0-inf): 1900 ng·h/mL
  AUC(0-t): 1900 ng·h/mL
  Cmax: 5560 ng/mL
  Tmax: 4.98 min
  clearance: 87.5 mL/min/kg
Pharmacokinetics, mouse; BALB/c, in vivo, IV, 10 mg/kg, read-out: T1/2 (converted)
  half-life: 0.22 h
Pharmacokinetics, mouse; BALB/c, in vivo, IV, 10 mg/kg, read-out: Vss
  Vd: 1.14 L/kg
Pharmacokinetics, mouse; BALB/c, in vivo, PO, 10 mg/kg
  AUC(0-t): 137 ng·h/mL
  Cmax: 390 ng/mL
  Tmax: 4.98 min
Pharmacokinetics, mouse; PO, 10 mg/kg, calculated using AUC0-last
  Foral: 7% and 7^i %
Pharmacokinetics, rat
  clearance: low to moderate
  half-life: less than 2 hrs
  volume of distribution: high
Pharmacokinetics, rat; PO, 10 mg/kg
  Foral: 57%
Pharmacokinetics, rat; [13]
  AUC(0-inf): 1160 ng·h/mL
  AUC(0-t): 1150 ng·h/mL
  Cmax: 1520 ng/mL
  Tmax: 0.083 h
Pharmacokinetics, rat; Sprague-Dawley, in vivo, IV, 2 mg/kg, read-out: Cl (converted)
  clearance: 30.5 mL/min/kg
Pharmacokinetics, rat; Sprague-Dawley, in vivo, IV, 2 mg/kg, read-out: T1/2 (converted)
  half-life: 0.73 h
Pharmacokinetics, rat; Sprague-Dawley, in vivo, IV, 2 mg/kg, read-out: Vss
  Vd: 1.66 L/kg
Pharmacokinetics, rat; [14]
  AUC(0-inf): 3300 ng·h/mL
  AUC(0-t): 2930 ng·h/mL
  Cmax: 785 ng/mL
  Tmax: 1.2 h
Pharmacokinetics, rat; Sprague-Dawley, in vivo, PO, 10 mg/kg, read-out: T1/2 (converted)
  half-life: 2.4 h
Pharmacokinetics, dog; PO, 5 mg/kg, 0.5 mg/kg IV dose as reference
  Foral: 97^g,i %
Pharmacokinetics, dog; PO, 5 mg/kg, 1 mg/kg IV dose as reference
  Foral: 40% and 40^h,i %
Pharmacokinetics, dog; IV, 0.5 mg/kg
  clearance: 0.85 mL/min/kg
  Vd: 0.13 L/kg
Pharmacokinetics, dog; IV, 1 mg/kg
  clearance: 3.23 mL/min/kg
  Vd: 0.493 L/kg
Pharmacokinetics, dog; iv, 0.5 mg/kg
  AUC(0-inf): 11900 ng·h/mL
Pharmacokinetics, dog; iv, 0.5 mg/kg, IV, 0.5 mg/kg
  AUC(0-t): 11700 ng·h/mL
Pharmacokinetics, dog; iv, 0.5 mg/kg, IV, 0.5 mg/kg, read-out: Cmax (reported value is C0)
  Cmax: 4410 ng/mL
Pharmacokinetics, dog; iv, 0.5 mg/kg, IV, 0.5 mg/kg, read-out: T1/2 (converted)
  half-life: 2 h
Pharmacokinetics, dog; iv, 1 mg/kg
  AUC(0-inf): 6270 ng·h/mL
Pharmacokinetics, dog; iv, 1 mg/kg, IV, 1 mg/kg
  AUC(0-t): 5880 ng·h/mL
Pharmacokinetics, dog; iv, 1 mg/kg, IV, 1 mg/kg, read-out: Cmax (reported value is C0)
  Cmax: 1800 ng/mL
Pharmacokinetics, dog; iv, 1 mg/kg, IV, 1 mg/kg, read-out: T1/2 (converted)
  half-life: 1.83 h
Pharmacokinetics, dog; [15]
  AUC(0-inf): 107000 ng·h/mL
  Tmax: 3 h
Pharmacokinetics, dog; [16]
  AUC(0-inf): 13800 ng·h/mL
  Tmax: 1.33 h
Pharmacokinetics, dog; po, 5 mg/kg, PO, 5 mg/kg (study with 0.5 mg/kg IV)
  AUC(0-t): 105000 ng·h/mL
Pharmacokinetics, dog; po, 5 mg/kg, PO, 5 mg/kg (study with 0.5 mg/kg IV), read-out: Cmax
  Cmax: 9600 ng/mL
Pharmacokinetics, dog; po, 5 mg/kg, PO, 5 mg/kg (study with 0.5 mg/kg IV), read-out: T1/2 (converted)
  half-life: 3.9 h
Pharmacokinetics, dog; po, 5 mg/kg, PO, 5 mg/kg (study with 1 mg/kg IV)
  AUC(0-t): 10900 ng·h/mL
Pharmacokinetics, dog; po, 5 mg/kg, PO, 5 mg/kg (study with 1 mg/kg IV), read-out: Cmax
  Cmax: 2370 ng/mL
Pharmacokinetics, dog; po, 5 mg/kg, PO, 5 mg/kg (study with 1 mg/kg IV), read-out: T1/2 (converted)
  half-life: 3.15 h
Pharmacokinetics, dog; read-out: half-life (converted)
  half-life: 2 h
[4]
  radioactivity in tissues at 24 hr: without quantifiable levels of radioactivity
Caco-2 cell monolayers
  cell membrane permeability: moderate
[5]; human, in vivo, oral, read-out: eliminating t1/2
  half-life: 6 to 10 h
[5]
  doses with mean steady-state trough above levels sufficient for PI3K-δ inhibition: > 15 mg BID
[5]; 8-50 mg BID
  plasma Cmax and AUC over the dose range: dose-proportional increases
[5]; through 50 mg BID
  PK profile: linear
[6]
  rat micronucleus assay: no direct adverse effect
[7]
  MTD: 500 mg/kg
Respiratory system
  respiratory parameters (respiratory rate, tidal volume, minute volume): no Compound 292-related effects
[8]; 13-week rat study, oral gavage
  NOAEL: 150 mg/m^2/day
[8]; both, rat, in vivo, po
  NOAEL at 13 weeks: 25 mg/kg/day
[8]; rat, Day 91, combined sexes
  mean AUC0-24 hr at the NOAEL: 14150 ng·h/mL
[9]; 13-week monkey study, oral gavage
  NOAEL: 60 mg/m^2/day
[9]; both, cynomolgus monkey, in vivo, po
  NOAEL at 13 weeks: 5 mg/kg/day
[9]; monkey, Day 91, combined sexes
  mean AUC0-24 hr at the NOAEL: 4015 ng·h/mL
[10]; female, rat, in vivo
  NOAEL: 35 mg/kg/day
[10]; pregnant rats, last day of dosing
  mean AUC0-24 hr at the NOAEL: 62200 ng·h/mL
[10]; rat
  maternal and fetal NOAEL: 210 mg/m^2/day
Central nervous system; 2 h after a 350 mg/kg oral dose
  locomotor activity: Significant decreases
Central nervous system; dose levels≦50 mg/kg
  effects on the central nervous system: No effects
Central nervous system; single oral dose up to 350 mg/kg, up to 24 h post-dose
  qualitative or quantitative FOB parameters: no changes
[11]; female, rabbit, in vivo
  NOAEL: 75 mg/kg/day
[11]; pregnant rabbits, last day of dosing
  mean AUC0-24 hr at the NOAEL: 66200 ng·h/mL
[11]; rabbit
  maternal and fetal NOAEL: 900 mg/m^2/day
[12]; healthy subjects
  IgE: No increases
  deaths and serious adverse events: no deaths and no serious adverse events
  safety laboratory or ECG abnormalities: No clinically significant safety laboratory or electrocardiogram (ECG) abnormalities
[12]; healthy subjects, serial ECGs
  QTcF greater than 500 msec: No subject
  largest change from baseline in QTcF: 37 ms
[12]; healthy subjects, single doses up to 30 mg, up to 10 mg daily for 14 days
  tolerability: well tolerated; also recorded: well-tolerated
[12]; [17]
  headache: 8%
  myalgia: 6%
  nasopharyngitis: 6%
Hematologic malignancies; CLL/SLL
  onset of clinical activity: Rapid onset
Hematologic malignancies; CLL/SLL, 8, 15, and 25 mg BID dose levels
  responses in evaluable patients: ⅔
Hematologic malignancies; CLL/SLL, 11 evaluable
  Best Observed Response CR: 0 n
  Best Observed Response PR: 6 n
Hematologic malignancies; CLL/SLL, 11 evaluable, four nodal responses
  Best Observed Response SD: 4^c n
Hematologic malignancies; HL, 2 evaluable
  Best Observed Response PR: 0 n
  Best Observed Response SD: 0 n
Hematologic malignancies; MCL, 3 evaluable
  Best Observed Response CR: 0 n
  Best Observed Response PR: 2 n
  Best Observed Response SD: 0 n
Hematologic malignancies; MCL, 8, 15, and 25 mg BID dose levels
  responses in evaluable patients: 1/1
Hematologic malignancies; MM, 3 evaluable
  Best Observed Response CR: 0 n
  Best Observed Response PD: 2 n
  Best Observed Response PR: 0 n
Hematologic malignancies; T-Cell Lymphoma, 6 evaluable
  Best Observed Response PD: 3 n
Hematologic malignancies; T-cell lymphoma and Hodgkin lymphoma
  doses at which responses were observed: ≥ 50 mg BID
Hematologic malignancies; aNHL, 3 evaluable
  Best Observed Response CR: 0 n
  Best Observed Response PD: 2 n
  Best Observed Response PR: 0 n
Hematologic malignancies; all indications and all dose levels evaluated
  tumor mass: Reduction in tumor mass
Hematologic malignancies; iNHL, 8, 15, and 25 mg BID dose levels
  responses in evaluable patients: ½
Hematologic malignancies; iNHL, 13 evaluable
  Best Observed Response PR: 7 n
  Best Observed Response SD: 4 n
Hematologic malignancies; iNHL, CLL/SLL, and MCL
  doses at which responses were observed: ≤ 50 mg BID
Hematologic malignancies; patient, enteropathy-associated T-cell lymphoma, 2 cycles, 60 mg BID
  pulmonary metastases by PET/CT: complete resolution
